This data set can be described thus: Storage stability of C6-pyrazole salts, HPLC measurement of dimer formation. Type of data set: physicochemical. The settings on record: for Amount of dimers at the time point t0: t0, sample of about 1.5 g spread on filter paper, HPLC, dimer of formula (II); for Amount of dimers at the time point t1: t1, 23 days in closed dark storage room at 21° C., controlled humidity; for Amount of dimers at the time point t2: t2, 26 days: 23 days dark, then 3 days without light protection under lab hood at room temperature, higher air humidity; for Amount of dimers at the time point t3: t3, 31 days: 5 extra days under the same conditions as t2. As for the experimental part: As summarized in the table below, three 1-hexyl-1H-pyrazole-4,5-diamine salts were synthesized through precipitation of the free base in presence of the corresponding acids and purification to obtain the hemisulfate, sulfate and dihydrochloride salts. Each sample was then placed on paper.
In order to measure and compare the stability of the three different salts, a small amount of each sample was taken at four different time points and an HPLC analysis was conducted in order to measure the formation of the undesired dimer of formula (II).

Consider `CCCCCCn1ncc(N)c1N.CCCCCCn1ncc(N)c1N.O=S(=O)(O)O` [C6-Pyrazole hemisulfate, 1-hexyl-1H-pyrazole-4,5-diamine hemisulfate], for which the “Amount of dimers at the time point t0” value came out at 6 ppm, the “Amount of dimers at the time point t1” value worked out at 37 ppm, the “Amount of dimers at the time point t2” value is listed as 43 ppm and the “Amount of dimers at the time point t3” value worked out at 74 ppm. The “Rate of formation of the dimer impurity” value (compared with the sulfate and dihydrochloride salts, storage conditions of table 1) is given as “much lower”. Besides, where the note is “conditions of storage described in table 1”, the “Stability compared with the corresponding sulfate and dihydrochloride salts” value was “more stable”.

Turning to `CCCCCCn1ncc(N)c1N.Cl.Cl` [C6-Pyrazole x 2 HCl], the “Amount of dimers at the time point t0” value is recorded as 45 ppm, the “Amount of dimers at the time point t1” value is reported as 511 ppm, the “Amount of dimers at the time point t2” value came out at 772 ppm and the “Amount of dimers at the time point t3” value came out at 1323 ppm.

For `CCCCCCn1ncc(N)c1N.O=S(=O)(O)O` [C6-Pyrazole sulfate], the “Amount of dimers at the time point t0” value stood at 11 ppm, the “Amount of dimers at the time point t1” value is 461 ppm, the “Amount of dimers at the time point t2” value came to 726 ppm and the “Amount of dimers at the time point t3” value was 1083 ppm.

Source of the values: patent US20140289973A1, “1-Hexyl-1H-Pyrazole-4,5-Diamine Hemisulfate, and Its Use in Dyeing Compositions” (The Procter & Gamble Company, priority 2012, published 2014).
